Key:
[1] = system: BPH cells; conditions: previously found, cited from earlier work
[2] = system: human bladder cells; assay: inhibition of basal human bladder cell growth; format: cell-based; conditions: stimulated and basal bladder cell growth, FIG. 4; in some cases significantly greater than anti-androgens such as finasteride
[3] = system: hBC; assay: androgen-stimulated hBC growth, 48 h incubation; format: cell-based, human; conditions: DHT 10 nM, Compound A 1 nM, finasteride 1 nM, FIG. 5
From the text: Results are expressed as percentage variation (mean±SEM) over their relative controls and derived from at least three different experiments obtained from three distinct hBC cell preparations. *P<0.05 (vs. control); °P<0.01 (vs. androgen-treated cells).

SMILES | BPH cell proliferation ([1]; also counteracted mitogenic activity of KGF and IGFI) | apoptosis in BPH cells ([1]; unstimulated and KGF-stimulated BPH cells) | inhibition of bladder cell growth [2] | hBC proliferation stimulated by the androgen DHT [3]
C=C1/C(=C\C=C2/CCC[C@]3(C)C([C@H](C)CC#CC(C)(C)O)=CC[C@@H]23)C[C@@H](O)C[C@@H]1O [Compound B, 1,25-dihydroxy-16-ene-23-yne cholecalciferol] | inhibited | induced | demonstrated | –
CC(C)(C)NC(=O)[C@H]1CC[C@H]2[C@@H]3CC[C@H]4NC(=O)C=C[C@]4(C)[C@H]3CC[C@]12C [finasteride, reference compound] | – | – | – | no significant effect
